Assay results published in patent publication US20240025849A1 (MAX DELBRÜCK-CENTRUM FÜR MOLEKULARE MEDIZIN IN DER …, priority 2020, published 2024).
Read-outs that look alike come from different tables or passages of the source.

Key:
[1] = test system: primary cultured neonatal microglia; experiment: LPS induced NO release, Griess assay, laboratory scaled setup; type: cell-based, mouse; settings: for IC50: Mus musculus, Microglia;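 for active: compounds at or above the IC50 cutoff were called inactive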
Experimental: Primary cultured neonatal microglia. For preparation of cultured neonatal microglia, P0-P3 mice were used. 10 brains were extracted, meninges and cerebellum were removed and put on ice with Hank's balanced salt solution (HBSS). The dissected brains were washed 3 times before adding 400 μL trypsin (0.1 mg/L) and DNAse (5 μg/L) in phosphate buffered saline (PBS). After 2 min of incubation with this solution, the reaction was blocked by adding plain medium. After removal of the medium, 1 mg DNAse was added and the cells were mechanically dissociated, with a Pasteur pipette followed by a glass pipette. The cells were centrifuged for 10 min at 129 g at 4° C. The supernatant was discarded. The pellet was resuspended in plain medium and plated (2.5 brains/flask) in Poly-L-Lysine coated flasks. The cells were washed after 2 days with PBS and incubated for another 7 days in plain medium. Afterwards the medium was replaced by plain medium with 33% L929 conditioned medium. After 2 days, cells were harvested by shaking them for 30 min at 150 rpm. The supernatant was centrifuged for 10 min at 129 g at 4° C. The cells were plated into a 96 well plate (100 000 cells/well, 200 μL medium per well). This procedure could be repeated 2 times with a 2 day interval.
Griess assay. Cells were seeded according to the protocols described above, after compounds and stimuli were added, 100 μl of supernatant was transferred into a new 96 well plate and 100 μl freshly mixed Griess reagent were added. Griess reagent was composed of reagent A (100 mg Naphthylethylene in 50 ml aqua dest.) and reagent B (1 g Sulfanilamide, […] H3PO4 (85%) in 44 mL aqua dest.) mixed 1:1. The solution was carefully mixed and the absorbance was determined in a microplate reader at a wavelength of 550 nm.
Dissolved sodium nitrite in plain medium served as a standard. Total amount of nitrite was calculated by a linear regression of the standard curve.
The activity of the compounds listed in column 1 of Table 1 as inhibitors of NO production was compared in murine primary cultured neonatal microglia as described above.

nNOS = experiment: NOS enzyme activity assay (Eurofins), nNOS; type: biochemical; settings: C1: 1 nM and 1 μM; 30 min reaction
Experimental: (§1) In mammalians NO is produced by the three isoforms of NOS: iNOS, eNOS, and nNOS. To evaluate the direct influence of cl on the different isoforms of NOS, an enzyme activity assay was conducted by Eurofins. C1 was mixed with the enzyme buffer, which included co-factors and substrates and by adding the enzyme the reaction was initiated. After 30 min the reaction was stopped, and NO concentration was measured. The results are normalised to positive control performed without any additional compounds and are presented as percentage in inhibition. […] To test the compounds effect on iNOS a concentration range from […] 5 μM were applied ([…], 1, 10, 100 nM, 1, and 5 μM), and for testing eNOS and nNOS 1 nM and 1 μM were applied.

iNOS = experiment: NOS enzyme activity assay (Eurofins), iNOS; type: biochemical; settings: C1: 1 μM up to 5 μM as printed; 30 min reaction
Experimental: as §1

[2] = inhibitors of NO production, murine primary cultured neonatal microglia, read-out: IC50
[3] = inhibitors of NO production, murine primary cultured neonatal microglia, read-out: activity class (IC50)
[4] = inhibitors of NO production, murine primary cultured neonatal microglia
[5] = inhibitors of NO production, murine primary cultured neonatal microglia, read-out: active

Row | SMILES | IC50 [1, 3] | active [1, 4] | IC50 [1, 5] | other results
1 | COc1ccc(NC(=O)[C@@H](NC(=O)[C@@H]2CCCN2C(=O)c2ccccc2)c2ccc(OC)cc2)cc1 [Compound 24, (S)-1-benzoyl-N—((S)-1-(4-methoxyphenyl)-2-((4-methoxyphenyl)amino)-2-oxoethyl)pyrrolidine-2-carboxamide] | < 10 µM | YES |  | IC50 [1, 2]: 1.1 µM
2 | COc1ccc(NC(=O)[C@@H](NC(=O)[C@@H]2CCCN2C(=O)CCc2ccccn2)c2ccc(OC)cc2)cc1 [Compound 25, (S)—N—((S)-1-(4-methoxyphenyl)-2-((4-methoxyphenyl)amino)-2-oxoethyl)-1-(3-(pyridin-2-yl)propanoyl)pyrrolidine-2-carboxamide] | < 10 µM | YES |  | IC50 [1, 2]: 6.88 µM
3 | COc1ccc([C@H](NC(=O)[C@@H]2CCCN2C(=O)OCc2ccccc2)C(=O)Nc2cnc(C)s2)cc1 [Compound 26, benzyl (S)-2-(((S)-1-(4-methoxyphenyl)-2-((2-methylthiazol-5-yl)amino)-2-oxoethyl)carbamoyl)pyrrolidine-1-carboxylate] | < 10 µM | YES |  | IC50 [1, 2]: 2.5 µM
4 | COc1ccc([C@H](NC(=O)[C@@H]2CCCN2C(=O)OCc2ccccc2)C(=O)Nc2cnc(C3CC3)nc2)cc1 [Compound 27, benzyl(S)-2-(((S)-2-((2-cyclopropylpyrimidin-5-yl)amino)-1-(4-methoxyphenyl)-2-oxoethyl)carbamoyl)pyrrolidine-1-carboxylate] | < 10 µM | YES |  | IC50 [1, 2]: 1.91 µM
5 | COc1ccc(NC(=O)[C@@H](NC(=O)[C@@H]2CCCN2C(=O)OC(C)(C)C)c2ccc(OC)cc2)cc1 [Compound 28, tert-butyl (S)-2-(((S)-1-(4-methoxyphenyl)-2-((4-methoxyphenyl)amino)-2-oxoethyl)carbamoyl)pyrrolidine-1-carboxylate] | < 10 µM | YES |  | IC50 [1, 2]: 3.3 µM
6 | COc1ccc(NC(=O)[C@@H](NC(=O)[C@@H]2CCCN2C(=O)OCc2ccccc2)c2ccc(OCCOCCOCCOCCOCCOCCNC(=O)CCCC[C@@H]3SC[C@@H]4NC(=O)N[C@@H]43)cc2)cc1 [Compound 29, benzyl (S)-2-(((S)-2-((4-methoxyphenyl)amino)-2-oxo-1-(4-((19-oxo-23-((3aS,4S,6aR)-2-oxohexahydro-1H-thieno[3,4-d]imidazol-4-yl)-3,6,9,12,15-pentaoxa-18-azatricosyl)oxy)phenyl)ethyl)carbamoyl)pyrrolidine-1-carboxylate] | < 10 µM | YES |  | IC50 [1, 2]: 2.36 µM
7 | COc1ccc(NC(=O)[C@@H](NC(=O)[C@@H]2CCN2C(=O)OCc2ccccc2)c2ccc(OC)cc2)cc1 [Compound 30, benzyl (S)-2-(((S)-1-(4-methoxyphenyl)-2-((4-methoxyphenyl)amino)-2-oxoethyl)carbamoyl)azetidine-1-carboxylate] | < 1 µM | YES |  | 
8 | COc1ccc(NC(=O)[C@@H](NC(=O)[C@@H]2C[C@@H]3CCCC[C@@H]3N2C(=O)OCc2ccccc2)c2ccc(OC)cc2)cc1 [Compound 31, benzyl(2S,3aS,7aS)-2-(((S)-1-(4-methoxyphenyl)-2-((4-methoxyphenyl)amino)-2-oxoethyl)carbamoyl)octahydro-1H-indole-1-carboxylate] | < 10 µM | YES |  | 
9 | COc1ccc(NC(=O)[C@@H](NC(=O)[C@@H]2Cc3ccccc3CN2C(=O)OCc2ccccc2)c2ccc(OC)cc2)cc1 [Compound 32, benzyl (S)-3-(((S)-1-(4-methoxyphenyl)-2-((4-methoxyphenyl)amino)-2-oxoethyl)carbamoyl)-3,4-dihydroisoquinoline-2(1H)-carboxylate] | < 10 µM | YES |  | 
10 | COc1ccc(NC(=O)[C@@H](NC(=O)[C@]2(C)CCCN2C(=O)OCc2ccccc2)c2ccc(OC)cc2)cc1 [Compound 33, benzyl (S)-2-(((S)-1-(4-methoxyphenyl)-2-((4-methoxyphenyl)amino)-2-oxoethyl)carbamoyl)-2-methylpyrrolidine-1-carboxylate] | < 0.2 µM | YES |  | 
11 | COc1ccc(NC(=O)[C@@H](NC(=O)[C@@H]2CCCCN2C(=O)OCc2ccccc2)c2ccc(OC)cc2)cc1 [Compound 34, benzyl (S)-2-(((S)-1-(4-methoxyphenyl)-2-((4-methoxyphenyl)amino)-2-oxoethyl)carbamoyl)piperidine-1-carboxylate] | < 0.2 µM | YES |  | 
12 | COc1ccc(NC(=O)[C@@H](NC(=O)[C@@H]2CCCN2CCCc2ccccc2)c2ccc(OC)cc2)cc1 [Compound 39, (S)—N—((S)-1-(4-methoxyphenyl)-2-((4-methoxyphenyl)amino)-2-oxoethyl)-1-(3-phenylpropyl)pyrrolidine-2-carboxamide] |  |  | ≥ 10 µM | 
13 | COc1ccc([C@H](NC(=O)[C@@H]2CCCN2C(=O)OCc2ccccc2)C(=O)Nc2cnn(C)c2)cc1 [Compound 40, benzyl (S)-2-(((S)-1-(4-methoxyphenyl)-2-((1-methyl-1H-pyrazol-4-yl)amino)-2-oxoethyl)carbamoyl)pyrrolidine-1-carboxylate] |  |  | ≥ 10 µM | 
14 | COc1ccc([C@H](NC(=O)[C@@H]2CCCN2C(=O)OCc2ccccc2)C(=O)Nc2cccc3c2ccn3C)cc1 [Compound 41, benzyl (S)-2-(((S)-1-(4-methoxyphenyl)-2-((1-methyl-1H-indol-4-yl)amino)-2-oxoethyl)carbamoyl)pyrrolidine-1-carboxylate] |  |  | ≥ 10 µM | 
15 | COc1ccc([C@H](NC(=O)[C@@H]2CCCN2C(=O)OCc2ccccc2)C(=O)Nc2ccc3c(c2)n(C)c(=O)n3C)cc1 [Compound 42, benzyl (S)-2-(((S)-2-((1,3-dimethyl-2-oxo-2,3-dihydro-1H-benzo[d]imidazol-5-yl)amino)-1-(4-methoxyphenyl)-2-oxoethyl)carbamoyl)pyrrolidine-1-carboxylate] |  |  | ≥ 10 µM | 
16 | COc1ccc([C@H](NC(=O)[C@@H]2CCCN2C(=O)OCc2ccccc2)C(=O)Nc2ccccc2)cc1 [Compound 43, benzyl (S)-2-(((S)-1-(4-methoxyphenyl)-2-oxo-2-(phenylamino)ethyl)carbamoyl)pyrrolidine-1-carboxylate] |  |  | ≥ 10 µM | 
17 | COc1ccc(NC(=O)[C@@H](NC(=O)[C@@H]2CCCN2)c2ccc(OC)cc2)cc1 [Compound 44] |  |  | ≥ 10 µM | 
18 | COc1ccc(NC(=O)[C@@H](NC(=O)[C@@H]2CCCN2C(=O)CCCCCNC(=O)CCCC[C@@H]2SC[C@@H]3NC(=O)N[C@@H]32)c2ccc(OC)cc2)cc1 [Compound 45] |  |  | ≥ 10 µM | 
19 | COc1ccc(NC(=O)[C@@H](NC(=O)[C@@H]2CCCN2C(C)=O)c2ccc(OC)cc2)cc1 [Compound 47] |  |  | ≥ 10 µM | 
20 | COc1ccc([C@H](NC(=O)[C@@H]2CCCN2C(=O)OCc2ccccc2)C(=O)Nc2ccc3nncn3c2)cc1 [Compound 48] |  |  | ≥ 10 µM | 
21 | COc1ccc([C@H](NC(=O)[C@@H]2CCCN2C(=O)OCc2ccccc2)C(=O)Nc2cccnc2)cc1 [Compound 49] |  |  | ≥ 10 µM | 
22 | COc1ccc(NC(=O)[C@H](NC(=O)[C@@H]2CCCN2C(=O)OCc2ccccc2)c2ccc(OC)cc2)cc1 [Compound 50, benzyl-(S)-2-(((R)-1-(4-methoxyphenyl)-2-((4-methoxyphenyl)amino)-2-oxoethyl)carbamoyl)-pyrrolidine-1-carboxylate] |  |  | ≥ 10 µM | inhibitory effect in the NO release assay ([1]; FIG. 9): not; IC50 ([1]; 0.002 to 20 μM, FIG. 9, read-out: IC50, LPS induced NO production (stereoisomers)): 40 µM
23 | COc1ccc(NC(=O)[C@@H](NC(=O)[C@@H]2C[C@@H](O)CN2C(=O)CCC2CCCCC2)c2ccc(OC)cc2)cc1 [Compound 53, (2S,4R)-1-(3-cyclohexylpropanoyl)-4-hydroxy-N—((S)-1-(4-methoxyphenyl)-2-((4-methoxyphenyl)amino)-2-oxoethyl)pyrrolidine-2-carboxamide] | < 1 µM | YES |  | 
24 | CSC(=N)N [S-Methylisothiourea, reference compound] |  |  |  | enzymatic activity of nNOS (nNOS): reduce the enzyme activity as predicted
25 | CC(=N)NCc1cccc(CN)c1 [W1400, reference compound] |  |  |  | enzymatic activity of iNOS (iNOS): reduce the enzyme activity as predicted
